What was measured:
[1] = tested on: CD24 cell surface expression in MCF7 breast cancer cells; assay: CD24 flow cytometry analysis in MCF7 cells; format: cell-based, human; conditions: MCF7, 10 or 20 μM bestatin vs DMSO (FIG. 7D)
Method: (§1) Flow Cytometry Analysis: For cell surface protein staining, 1×10^5-1×10^6 cells were first incubated with Fc receptor blocking solution, Human TruStain FcX™ (BioLegend, Cat #422301) for 10 minutes at room temperature. Cells were washed once in FACS buffer (1×PBS, 1.0% bovine serum albumin (BSA) (Sigma) and 0.2% sodium azide (Sigma), and then incubated with antibodies (given below) for 30 minutes at 4° C. in the dark. Cells were also stained with 7-AAD (Biolegend, Cat #420404) for dead cell exclusion, and flow cytometry analysis was performed using a Bio-Rad ZE5 Cell Analyzer. Following antibodies used in this study (all antibodies were used at 1:50 dilution unless otherwise noted): APC anti-human CD24 (BioLegend, Cat #311118, clone ML5), PE anti-human CD24 (eBioscience, Cat #12-0247-42, clone SN3), APC anti-human CD47 (BioLegend, Cat #323124, clone CC2C6), APC anti-human § 2-microglobulin (BioLegend, Cat #395711, clone A17082A), PE anti-human HLA-A2 (MHC-class I) (BioLegend, Cat #343305, clone BB7.2), APC anti-human CD11b (BioLegend, Cat #982604, clone ICRF44), APC anti-mouse F4/80 antibody (BioLegend, Cat #123116, clone BM8), APC-streptavidin (Thermo Fisher Scientific, Cat #SA1005, 1:100 dilution), PE anti-Calreticulin (Invitrogen, Catalog #MA5-15382, 1:200 dilution). […]

[2] = tested on: CD24 cell surface expression in SKOV3 cells; assay: CD24 flow cytometry analysis in SKOV3 cells; format: cell-based, human; conditions: 3 days, bestatin 10 or 20 μM, tosedostat 5 or 10 μM, vs DMSO
Method: as §1, with “FcXTM” for “FcX™”, “[…]),” for “A17082A),”

Compound | CD24 cell surface expression (MFI) [1] | CD24 cell surface expression (MFI) [2]
CC(C)C[C@H](NC(=O)[C@@H](O)[C@H](N)Cc1ccccc1)C(=O)O [bestatin] | did not decrease | –
CC(C)C[C@@H](C(=O)N[C@H](C(=O)OC1CCCC1)c1ccccc1)[C@H](O)C(=O)NO [tosedostat] | – | reduced

Reference: patent US20260209777A1, “TARGETING GLYCOSYLPHOSPHATIDYLINOSITOL (GPI) PATHWAY PROTEINS TO TREAT OVARIAN CANCER” (UNIVERSITY OF MASSACHUSETTS, priority 2023, published 2026)
